Data on nine molecules can be found in patent US4348264A, “Photocatalyzed process for producing carbapenams and carbapen-2-ems” (Pfizer Inc., priority 1981, dated 1982).

Holding throughout (format): cell-based
One assay relates to Bacillus subtilis. Nature of the assay: Standard disc-plate method, zone of inhibition. The note with it: 25 microgram discs; for zone of inhibition at 25 µg/disc: Bacillus subtilis. From the text: (§1) The utility of the various compounds as intermediates to other compounds of the present invention will be evident from the preceding discussion. The antibacterial activity of these compounds, reflecting their utility in the control of susceptible bacterial infections in man and animals, as animal feed additives for promotion of growth, or as preservatives of materials biodegraded by susceptible microorganisms, is best measured by the standard disc-plate method routinely employed in clinical laboratories for determining the sensitivity of microorganisms to antimicrobial substances. Sensitivity discs are prepared by dipping a standard 6.25 mm. paper disc into a solution of the compound to be tested (conc. 1 mg./ml.) in a volatile solvent (e.g. methylene chloride) and the disc dried, producing discs containing approximately 25 microg. of the compound. The discs are placed on the surface of agar growth media seeded with the test microorganism, previously plated into Petri dishes. The plates are incubated overnight at 35°-37° C. Activity of the test compound is reflected by a zone of inhibition of bacterial growth around the test disc. The diameter of this zone provides a quantitative measure of the activity of the antibacterial substance. The activity of various compounds of the present invention is summarized in Table I. For comparison, results obtained with 10 microg. discs of ampicillin and penicillin G are included as positive controls.

Assay [1] deals with Escherichia coli. The assay can be described thus: Standard disc-plate method, zone of inhibition. Conditions: 25 microgram discs; for zone of inhibition at 25 µg/disc: Escherichia coli.
Text: as §1

The test system of assay [2] is Staphylococcus aureus (Antibiotic Resistant). The assay can be described thus: Standard disc-plate method, zone of inhibition. The note with it: Staphylococcus aureus; 25 microgram discs; antibiotic resistant.
Text: as §1

Assay [3] has as its system Staphylococcus aureus. Nature of the assay: Standard disc-plate method, zone of inhibition. Conditions: 25 microgram discs; for zone of inhibition at 25 µg/disc: Staphylococcus aureus.
Text: as §1

A further assay deals with Vibrio percolans. The assay can be described thus: Standard disc-plate method, zone of inhibition. The note with it: Comamonas terrigena, 25 microgram discs.
Text: as §1

A further assay relates to Proteus morgani. The assay can be described thus: Serial dilution-tube method, MIC. Conditions: brain heart infusion broth; for MIC: read-out: Minimum Inhibitory Concentration.
The subject of a further assay is Citrobacter diversus. The assay can be described thus: Serial dilution-tube method, MIC. Conditions: Citrobacter koseri; brain heart infusion broth; read-out: Minimum Inhibitory Concentration.
Another assay relates to Enterobacter cloacae. The assay can be described thus: Serial dilution-tube method, MIC. Conditions: brain heart infusion broth; for MIC: Enterobacter cloacae, read-out: Minimum Inhibitory Concentration.
The next assay concerns Serratia marcescens. Nature of the assay: Serial dilution-tube method, MIC. The note with it: brain heart infusion broth; for MIC: Serratia marcescens, read-out: Minimum Inhibitory Concentration.
For another assay, the system named is Klebsiella pneumoniae. The assay can be described thus: Serial dilution-tube method, MIC. Conditions: brain heart infusion broth; for MIC: Klebsiella pneumoniae, read-out: Minimum Inhibitory Concentration.
The next assay relates to Pseudomonas aeruginosa. The assay can be described thus: Serial dilution-tube method, MIC. The note with it: brain heart infusion broth; for MIC: Pseudomonas aeruginosa, read-out: Minimum Inhibitory Concentration.
For assay [4], the system named is Escherichia coli (Antibiotic Resistant). Nature of the assay: Serial dilution-tube method, MIC. Also on record: key to synergistic effect with cefazolin: b: Shows a synergistic effect when tested 1:1 with cefazolin. Conditions: for MIC: Escherichia coli, read-out: Minimum Inhibitory Concentration.
Assay [5] has as its system Escherichia coli. The assay can be described thus: Serial dilution-tube method, MIC. Details: key to synergistic effect with ampicillin: Shows a synergistic effect when tested 1:1 with ampicillin. Conditions: for MIC: Escherichia coli, read-out: Minimum Inhibitory Concentration.
Assay [6] deals with Staphylococcus aureus (Antibiotic Resistant). The assay can be described thus: Serial dilution-tube method, MIC. Also on record: key to synergistic effect with ampicillin: Shows a synergistic effect when tested 1:1 with ampicillin. The note with it: for MIC: Staphylococcus aureus, read-out: Minimum Inhibitory Concentration.
Assay [7] concerns Staphylococcus aureus. Nature of the assay: Serial dilution-tube method, MIC. Conditions: for MIC: Staphylococcus aureus.
A further assay has as its system Micrococcus luteus. Nature of the assay: Standard disc-plate method, zone of inhibition. Conditions: 25 microgram discs.
Text: as §1

The mark [8] stands for this setting: brain heart infusion broth, read-out: Minimum Inhibitory Concentration.

≈ marks a conversion by molar mass, not a printed value. Where two headings read alike, the source gives them in different places. Bounds are passed on as bounds.

For `CCN1CCN(C(=O)N[C@@H](C(=O)NC2C(=O)N3C(C(=O)O)C(C)C(O)C23)c2ccccc2)C(=O)C1=O` (stereo partly drawn) [EPA H H CH3 H OH I, Sodium 1-Hydroxy-2-methyl-6-[2-phenyl-2-(4-ethyl-2,3-dioxopiperazine-1-carboxamido)acetamido]carbapenam-3-carboxylate], the zone of inhibition at 25 µg/disc in the assay with Bacillus subtilis was 16 mm; in the assay with Escherichia coli [1] it was 16 mm; in assay [2], 9 mm; in the assay with Staphylococcus aureus [3], 15 mm; in the assay on Vibrio percolans, 25 mm. In addition, the MIC was 50 µg/mL in the assay on Proteus morgani; greater than 200 µg/mL with Citrobacter diversus; 50 µg/mL in the assay with Enterobacter cloacae; greater than 200 µg/mL in the assay with Serratia marcescens; greater than 200 µg/mL with Klebsiella pneumoniae; greater than 200 µg/mL in the assay on Pseudomonas aeruginosa. Further, the MIC was greater than 200 µg/mL in [4] (brain heart infusion broth), 100 µg/mL in the assay on Escherichia coli [5] (brain heart infusion broth), 200 µg/mL in assay [6] (brain heart infusion broth) and 50 µg/mL with Staphylococcus aureus [7] (setting [8]).

As for `CCN1CCN(C(=O)N[C@@H](C(=O)NC2C(=O)N3C(C(=O)OCOC(=O)C(C)(C)C)C(C)C(O)C23)c2ccccc2)C(=O)C1=O` (stereo partly drawn) [EPA H POM CH3 H OH I, Pivaloyloxymethyl 1-Hydroxy-2-methyl-6-[2-phenyl-2-(4-ethyl-2,3-dioxopiperazine-1-carboxamido)acetamido]carbapenam-3-carboxylate], the zone of inhibition at 25 µg/disc in the assay with Bacillus subtilis was determined as 17 mm; in the assay on Escherichia coli [1], 20 mm; in assay [2] it was 10 mm; in the assay with Staphylococcus aureus [3], 18 mm; in the assay on Vibrio percolans, 24 mm. In addition, the MIC with Proteus morgani is no more than 0.39 µg/mL; in the assay with Citrobacter diversus, 12.5 µg/mL (≈ 20.3 µM); with Enterobacter cloacae, 12.5 µg/mL (≈ 20.3 µM); in the assay with Serratia marcescens, 25 µg/mL (≈ 40.6 µM); in the assay with Klebsiella pneumoniae, 12.5 µg/mL (≈ 20.3 µM); in the assay on Pseudomonas aeruginosa it was 200 µg/mL (≈ 325 µM). In addition, the MIC was greater than 200 µg/mL in [4] (brain heart infusion broth), 6.25 µg/mL in the assay with Escherichia coli [5] (brain heart infusion broth), greater than 200 µg/mL in [6] (brain heart infusion broth) and 25 µg/mL (≈ 40.6 µM) with Staphylococcus aureus [7] (setting [8]).

`CCN1CCN(C(=O)N[C@@H](C(=O)NC2C(=O)N3C(C(=O)OCOC(=O)C(C)(C)C)C(C)C(=O)C23)c2ccccc2)C(=O)C1=O` (stereo partly drawn) [EPA H POM CH3 O I, Pivaloyloxymethyl 2-Methyl-1-oxo-6-[2-phenyl-2-(4-ethyl-2,3-dioxopiperazine-1-carboxamido)acetamido]carbapenam-3-carboxylate]: the zone of inhibition at 25 µg/disc was found to be 21 mm with Bacillus subtilis; 12 mm with Escherichia coli [1]; 12 mm in [2]; 12 mm with Staphylococcus aureus [3]; 21 mm with Vibrio percolans. For the same molecule, the MIC in the assay on Proteus morgani was 25 µg/mL (≈ 40.7 µM); in the assay with Citrobacter diversus, 100 µg/mL (≈ 163 µM); in the assay on Enterobacter cloacae it was 200 µg/mL (≈ 326 µM); in the assay on Serratia marcescens it was 100 µg/mL (≈ 163 µM); in the assay with Klebsiella pneumoniae, 100 µg/mL (≈ 163 µM); with Pseudomonas aeruginosa it was greater than 200 µg/mL. Moreover, the MIC was greater than 200 µg/mL in assay [4] (brain heart infusion broth), 100 µg/mL with Escherichia coli [5] (brain heart infusion broth), greater than 200 µg/mL in assay [6] (brain heart infusion broth) and 100 µg/mL (≈ 163 µM) with Staphylococcus aureus [7] (setting [8]). The “synergistic effect with ampicillin” value with Escherichia coli [5] (tested 1:1 with ampicillin) is on record as “a”.

For the molecule `CC(=O)OC1C(C)C(C(=O)O)N2C(=O)CC12` (stereo not drawn) [H H H CH3 H OAc I, 1-Acetoxy-2-methylcarbapenam-3-carboxylic Acid], the results for the zone of inhibition at 25 µg/disc (in the assay with Bacillus subtilis; in [2]; with Staphylococcus aureus [3]) were 12 mm, 0 mm and 0 mm, respectively. For the same molecule, the MIC with Proteus morgani, in the assay on Citrobacter diversus, in the assay on Enterobacter cloacae, with Serratia marcescens, in the assay with Klebsiella pneumoniae and with Pseudomonas aeruginosa was greater than 200 µg/mL throughout. Moreover, the MIC in assay [4] (brain heart infusion broth) is greater than 200 µg/mL; in the assay on Escherichia coli [5] (brain heart infusion broth), greater than 200 µg/mL; in [6] (brain heart infusion broth) it was greater than 2000 µg/mL; with Staphylococcus aureus [7] (setting [8]), greater than 200 µg/mL.

As to `CC1C(O)C2CC(=O)N2C1C(=O)OCOC(=O)C(C)(C)C` (stereo not drawn) [H H POM CH3 H OH I, Pivaloyloxymethyl 1-Hydroxy-2-methylcarbapenam-3-carboxylate], the zone of inhibition at 25 µg/disc (in the assay on Bacillus subtilis; in [2]; in the assay on Staphylococcus aureus [3]) was 0 mm in each case. In addition, the MIC with Proteus morgani, with Citrobacter diversus, with Enterobacter cloacae, in the assay on Serratia marcescens, in the assay on Klebsiella pneumoniae and in the assay on Pseudomonas aeruginosa was greater than 200 µg/mL throughout. The MIC (in assay [4] (brain heart infusion broth); with Escherichia coli [5] (brain heart infusion broth); in assay [6] (brain heart infusion broth); in the assay with Staphylococcus aureus [7] (setting [8])) was greater than 200 µg/mL in each case.

`CC1C(=O)C2CC(=O)N2C1C(=O)OCOC(=O)C(C)(C)C` (stereo not drawn) [H H POM CH3 O I, Pivaloyloxymethyl 2-Methyl-1-oxocarbapenam-3-carboxylate]: the zone of inhibition at 25 µg/disc was determined as 18 mm in the assay with Bacillus subtilis, 0 mm in assay [2] and 18 mm in the assay on Staphylococcus aureus [3]. Moreover, the MIC in the assay on Proteus morgani, in the assay with Citrobacter diversus, in the assay with Enterobacter cloacae, in the assay with Serratia marcescens, in the assay on Klebsiella pneumoniae and with Pseudomonas aeruginosa was greater than 200 µg/mL each time. Moreover, the MIC in [4] (brain heart infusion broth) was greater than 200 µg/mL; with Escherichia coli [5] (brain heart infusion broth), greater than 200 µg/mL; in [6] (brain heart infusion broth) it was greater than 200 µg/mL; in the assay with Staphylococcus aureus [7] (setting [8]), greater than 200 µg/mL; in the assay on Staphylococcus aureus [7] (serial dilution tube test, read-out: minimum inhibitory concentration), greater than 200 µg/mL. Moreover, the “synergistic effect with cefazolin” value in assay [4] (tested 1:1 with cefazolin) is listed as “b”. Further, the “synergistic effect with ampicillin” value in [6] (tested 1:1 with ampicillin) is reported as “a”.

Regarding `CC1=C(C(=O)[O-])N2C(=O)C(C(C)O)C2C1O.[Na+]` (stereo not drawn) [HET H H CH3 H OH I], the “Zone of Inhibition” value came out at 29 mm with Bacillus subtilis, 23 mm in the assay on Escherichia coli [1], 39 mm in the assay with Micrococcus luteus and 29 mm with Staphylococcus aureus [3]. The “Minimum Inhibitory Concentration” value in the assay with Proteus morgani was 25 µg/mL; in the assay with Enterobacter cloacae it was 25 µg/mL; in the assay with Serratia marcescens, 50 µg/mL; with Klebsiella pneumoniae, 50 µg/mL; with Pseudomonas aeruginosa it was 200 µg/mL; in [4] (brain heart infusion broth) it was 12.5 µg/mL. Further, the “Minimum Inhibitory Concentration” value in the assay with Escherichia coli [5] (brain heart infusion broth) was 6.25 µg/mL; in assay [6] (brain heart infusion broth), 3.12 µg/mL; in the assay with Staphylococcus aureus [7] (brain heart infusion broth), 1.56 µg/mL.

In the case of `Cc1onc(-c2ccccc2)c1C(=O)NC1C(=O)N2C(C(=O)OCOC(=O)C(C)(C)C)C(C)C(O)C12` (stereo not drawn) [MPI H POM CH3 H OH I, Pivaloyloxymethyl 1-Hydroxy-2-methyl-6-(5-methyl-3-phenylisoxazole-4-carboxamido)carbapenam-3-carboxylate], the zone of inhibition at 25 µg/disc was 16 mm in the assay on Bacillus subtilis; 0 mm with Escherichia coli [1]; 14 mm in assay [2]; 15 mm with Staphylococcus aureus [3]; 13 mm with Vibrio percolans. Further, the MIC in the assay on Proteus morgani, in the assay on Citrobacter diversus, in the assay on Enterobacter cloacae, with Serratia marcescens, in the assay on Klebsiella pneumoniae and with Pseudomonas aeruginosa was greater than 200 µg/mL throughout. Besides, the MIC was greater than 200 µg/mL in assay [4] (brain heart infusion broth), greater than 200 µg/mL in the assay on Escherichia coli [5] (brain heart infusion broth), 100 µg/mL in assay [6] (brain heart infusion broth) and 100 µg/mL (≈ 200 µM) with Staphylococcus aureus [7] (setting [8]).

Take `CC1C(=O)C2C(NC(=O)COc3ccccc3)C(=O)N2C1C(=O)OCOC(=O)C(C)(C)C` (stereo not drawn) [PMA H POM CH3 O I, Pivaloyloxymethyl 2-Methyl-1-oxo-6-(2-phenoxyacetamido)carbapenam-3-carboxylate]: the zone of inhibition at 25 µg/disc with Bacillus subtilis was 21 mm; with Escherichia coli [1], 0 mm; with Micrococcus luteus (Micrococcus luteus), 15 mm; in [2], 12 mm. Besides, the MIC in the assay on Proteus morgani, in the assay with Citrobacter diversus, in the assay on Enterobacter cloacae, with Serratia marcescens, in the assay on Klebsiella pneumoniae and with Pseudomonas aeruginosa was greater than 200 µg/mL each time. For the same molecule, the MIC (in [4] (brain heart infusion broth); in the assay with Escherichia coli [5] (brain heart infusion broth); in [6] (brain heart infusion broth)) was greater than 200 µg/mL each time.
